Reference: patent publication US11447486B2, “2-amino-benzimidazole derivatives and their use as 5-lipoxygenase and/or prostaglandin E synthase inhibitors” (INSTITUT PASTEUR KOREA, priority 2014, dated 2022)

Legend:
human 5-LOX = target: T1, human 5-LOX (Homo sapiens, UniProt P09917); experiment: 5-LOX enzyme activity, fluorescence method (5-HPETE, H2DCFDA); format: biochemical; details: read-out: 5-LO (IC50)
T1 construct: purchased Cayman 60402; host or cells: insect cells (lysate)
T1 sequence (P09917 1-674): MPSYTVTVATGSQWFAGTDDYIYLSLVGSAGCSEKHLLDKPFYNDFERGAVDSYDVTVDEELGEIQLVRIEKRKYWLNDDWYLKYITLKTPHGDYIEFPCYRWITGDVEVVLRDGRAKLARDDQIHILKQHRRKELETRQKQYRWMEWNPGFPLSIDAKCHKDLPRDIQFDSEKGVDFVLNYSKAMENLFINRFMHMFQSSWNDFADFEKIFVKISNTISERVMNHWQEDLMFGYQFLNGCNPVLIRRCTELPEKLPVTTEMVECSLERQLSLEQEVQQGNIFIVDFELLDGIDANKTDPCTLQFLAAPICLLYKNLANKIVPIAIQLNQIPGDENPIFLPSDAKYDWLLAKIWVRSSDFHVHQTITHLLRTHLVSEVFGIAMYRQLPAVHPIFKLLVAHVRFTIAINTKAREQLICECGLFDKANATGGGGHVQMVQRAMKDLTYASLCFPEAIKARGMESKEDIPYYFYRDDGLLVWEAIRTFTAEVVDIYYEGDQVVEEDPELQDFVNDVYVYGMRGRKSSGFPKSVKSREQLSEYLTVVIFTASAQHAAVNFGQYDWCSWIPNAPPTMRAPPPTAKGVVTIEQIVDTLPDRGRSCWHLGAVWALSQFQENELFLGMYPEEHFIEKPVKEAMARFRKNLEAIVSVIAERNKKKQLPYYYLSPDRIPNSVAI
Method in brief: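 Fluorescence-based read-out, run entirely at room temperature. Enzyme mixture was exposed to a dose range of compound from 0.5 nM to 10 uM for 5 min before ATP and arachidonic acid were added to final levels of 100 uM and 3 uM.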

[1] = target: T2, Human 5-lipoxygenase (5-LOX) (Homo sapiens, UniProt P09917); experiment: 5-LOX enzyme activity, LTB4 measurement by ELISA; format: biochemical; details: ELISA method; read-out: 5LO (IC50)
T2 construct: purchased Cayman 60402; host or cells: insect cells
T2 sequence (P09917 1-674): T1 sequence (P09917 1-674)
Experimental: The activity of compounds against 5-LOX were determined by measuring LTB4 (leukotriene B4) levels and/or by a fluorescence method. Both approaches are outlined in more detail below;
LTB4 Measurement by ELISA:
Human 5-lipoxygenase (5-LOX) (Cayman, Cat #60402) produced in insect cells was pre-incubated with compounds for 5 min at RT in incubation buffer (50 mM Tris-Cl, pH 7.4, 2 mM CaCl2, 0.1 mM ATP, 2% DMSO). Compounds were tested in dose reponse from 0.5 nM to 10 uM. The enzymatic reaction was started by adding arachidonic acid to a final concentration of 3 uM. After 5 min of incubation at 25° C., the reaction was stopped by adding H2O2 to a final concentration of 1 mM. LTB4 levels were quantified using a LTB4 EIA kit (Cayman, Cat #520111) as instructed.

[2] = test system: Rat basophilic leukemia (RBL) cells; experiment: LTB4 secretion assay in RBL (rat basophilic leukemia cells); format: cell-based; details: Rattus norvegicus, RBL
Method in brief: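 LTB4 released into supernatant was measured by EIA after 10 min at 37 °C with arachidonic acid (2.5 uM final) and calcium ionophore A23187 (5 uM final). Before stimulation, cells plated 2×10^4/well overnight received compound doses (5 nM to 100 uM) for 15 min in 0.5% FBS medium.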

Rat whole blood (RWB) = experiment: LTB4 secretion assay in RWB (rat whole blood); format: cell-based; details: Rattus norvegicus
Method in brief: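 LTB4 release was measured by EIA in supernatants of pooled, sodium heparin rat blood (male Sprague Dawley, 6-9 weeks) diluted 1:1 with RPMI. Compounds (2.5 nM to 50 uM) were added 15 min before A23187 (10 uM final), with 10 min stimulation at 37 °C before ice-cold PBS quench.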

HeLa S3 cells = experiment: PGE2 inhibition assay (HTRF) in TNF-α stimulated HeLa S3 cells; format: cell-based; details: Homo sapiens; PGE2, 10 uM compound, HeLa S3 stimulated with TNF-α
Experimental: Human epitheloid cervix carcinoma HeLa S3 cells (2×10^6cells/ml) were seeded with modified F-12K buffer medium pH 7.4 in tissue culture plate and incubated for overnight at 37° C. and 5% CO2. Then medium was changed into new medium contained 10 uM testing compounds or 0.1% DMSO and incubated overnight. After incubation, cells were stimulated with 30 nM TNF-α (Tumor necrosis factor-α) for 16 h. For determination of PGE2, the supernatant was measured by PGE2 HTRF (Homogeneous Time Resolved Fluorescence) assay kit Inhibition of PGE2 by compounds is calculated as a percentage of activity in the presence of drug versus the activity in the stimulator TNF-α.

[3] = target: T3, Human recombinant cyclooxygenase-2 (Homo sapiens, UniProt P35354); experiment: COX-2 inhibition assay (EIA); format: biochemical; details: for inhibition at 10 µM: COX-2, 10 uM compound; for inhibitory effect on cyclooxygenase-2 (COX-2): tested at 10 uM
T3 construct: host or cells: insect Sf21 cells
T3 sequence (P35354 18-604): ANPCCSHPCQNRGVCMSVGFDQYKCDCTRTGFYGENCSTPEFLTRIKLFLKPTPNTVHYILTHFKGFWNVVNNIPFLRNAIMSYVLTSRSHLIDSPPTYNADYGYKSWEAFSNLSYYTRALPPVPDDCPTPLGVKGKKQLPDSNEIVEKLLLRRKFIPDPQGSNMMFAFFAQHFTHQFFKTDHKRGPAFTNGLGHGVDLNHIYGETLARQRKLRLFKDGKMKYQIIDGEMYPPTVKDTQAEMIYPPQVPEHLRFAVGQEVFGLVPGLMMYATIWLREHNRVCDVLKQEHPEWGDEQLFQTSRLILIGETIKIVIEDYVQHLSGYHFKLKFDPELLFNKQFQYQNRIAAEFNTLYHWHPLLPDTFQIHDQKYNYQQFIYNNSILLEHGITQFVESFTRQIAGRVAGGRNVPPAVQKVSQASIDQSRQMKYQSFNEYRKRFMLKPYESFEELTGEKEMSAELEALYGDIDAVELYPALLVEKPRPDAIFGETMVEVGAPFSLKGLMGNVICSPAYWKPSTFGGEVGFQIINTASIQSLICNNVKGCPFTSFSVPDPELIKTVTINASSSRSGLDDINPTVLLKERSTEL
Experimental: Human recombinant cyclooxygenase-2 expressed in insect Sf21 cells was used. The testing compounds and reference compound (Rofecoxib) were dissolved in DMSO (Sigma, USA) and tested at 10 uM. Test samples were pre-incubated with 0.11 U enzyme in 100 mM modified Tris-HCl buffer pH 7.7 for 15 minutes at 37° C. The reactions were initiated by addition of 0.3 μM arachidonic acid for another 5-minute incubation period, then terminated by further addition of 1 N HCl. An aliquot was then combined with the EIA kit for spectrophotometric determination of the quantity of PGE2 formed. Inhibition % was determined by compared with relative amounts of PGE2 induced by arachidonic acid.

Brown Norway rats = experiment: OVA-induced airway inflammation model in Brown Norway rats; format: in vivo, rat; details: 25, 50, 100 mg/kg p.o. BID, Day 19-21
Excerpt: The objective of this study is to determine the efficacy of compounds in the lungs of ovalbumin (OVA) induced in Brown Norway rats. As with most models of induced allergic asthma, animals are systemically sensitized to specific antigens and then, after a period of time, challenged with the same allergen administered via the airway. Ovalbumin had been used as the standard allergen to sensitize and challenge animals in this study.
Thirty (30) male Brown Norway rats were randomized into 5 groups on the basis of body weight. For sensitization, 1% OVA in PBS solution was mixed with alum solution (with volume ratio of 1:9). All rats in groups 1-5 were sensitized by i.p injection (1 mL/rat) of 1% OVA-alum sensitization solution on day 1, 2 and 3. At day 21, rats in groups 1-5 were challenged with 1% OVA in PBS solution with aerosolizing dosing system for 20 min.
Test compounds were administered by p.o. from days 19-21 of the study as per schedule below:
Group 1: sensitized-vehicle,
Group 2: reference drug dexamethasone, 0.3 mg/kg, p.o., Day 19-21, BID,
Group 3: compound 211, 25 mg/kg, p.o., Day 19-21, BID,
Group 4: compound 211, 50 mg/kg, p.o., Day 19-21, BID,
Group 5: compound 211, 100 mg/kg, p.o., Day 19-21, BID,
On day 22, bronchoalveolar lavage and lung tissues were harvested. Total cell number and differential cell counts in BALF, leukotriene B4 (LTB4) in BALF and lung tissue, histopathology of lung by H&E staining will be evaluated.

| IC50 (human 5-LOX) | IC50 [1] | EC50 [2] | EC50 (Rat whole blood (RWB)) | inhibition at 10 µM [3] | inhibitory effect on cyclooxygenase-2 (COX-2) [3] | melting point | SMILES | inhibition at 10 µM (HeLa S3 cells) | LTB4 in BALF and Lung (Brown Norway rats) | increase of inflammatory cells including total cell and eosinophils (Brown Norway rats; BALF) | inflammation cell infiltration (Brown Norway rats; lung histopathology) |
| --- | --- | --- | --- | --- | --- | --- | --- | --- | --- | --- | --- |
| < 1 µM | < 1 µM | < 10 µM | < 10 µM |  |  |  | Nc1ccc2[nH]c(NCc3ccc(Oc4ccc(Cl)cc4)cn3)nc2c1 [Compound 14] |  |  |  |  |
| < 1 µM | 1 to 20 µM | < 10 µM | < 10 µM |  |  |  | Nc1ccc2nc(N)n(CCOc3ccc(OC(F)(F)F)cc3)c2c1 [Compound 48] |  |  |  |  |
| < 1 µM |  | < 10 µM | 10 to 20 µM | < 1% | do not have an inhibitory effect | > 200 °C | Nc1ccc2[nH]c(NCc3ccc(-c4ccccc4)cc3)nc2c1 [Compound 90] | > 70% |  |  |  |
| < 1 µM |  | < 10 µM | < 10 µM |  |  |  | Cn1c(NCc2ccc(Oc3ccc(Cl)cn3)cc2)nc2ccc(NC3COC3)cc21 [Compound 211] | 40 to 70% | reduced | significantly reduced | significantly reduced |
| < 1 µM |  | < 10 µM |  | < 1% | do not have an inhibitory effect | > 137.5 °C | CC(C)Nc1ccc2[nH]c(NCc3ccc(Oc4ccccc4)cc3)nc2c1 [Compound 95] | > 70% |  |  |  |
| > 10 µM | 1 to 20 µM | < 10 µM | 10 to 20 µM |  |  |  | Nc1ccc2c(c1)nc(N)n2CCOc1ccc(OC(F)(F)F)cc1 [Compound 49] |  |  |  |  |
